Experimental data taken from EP2563337B1, “CARRIER AND TARGETING SYSTEM COMPRISING A SIOSOMAL COMPOSITION FOR INTRACELLULAR DELIVERY AND TARGETING OF ACTIVE SUBSTANCE” (Salama, Zoser B., priority 2010, dated 2011).
“And” between values parts separate entries of the source, which are not always exact repeats. Equal values may be shown once. Each block holds one compound with its values, some of them ahead of it.

Key:
[1] = for Particle size range of the Doxorubicin-siosomes (nm): Example 18: doxorubicin-siosomes prepared from the single organosilicon compound; for Particle size (nm): Example 19: doxorubicin-siosomes from organosilicon compounds and combinations
Procedure: The siosome size was measured using Zetasizer (Malvern Instruments).
The obtained test samples were analyzed using a Zetasizer from Malvern to measure the particle size of the Siosomes® and its concentration (via determination of the count rate which related to the sample quality and concentration).
The Zetasizer from Malvern performs particle size measurements using a process called Dynamic Light Scattering (DLS). Dynamic Light Scattering (also known as PCS - Photon Correlation Spectroscopy) measures Brownian motion and relates this to the size of the particles. It does this by illuminating the particles with a laser and analyzing the intensity fluctuations in the scattered light. If the particles or molecules are illuminated with a laser, the intensity of the scattered light fluctuates at a rate that is dependent upon the size of the particles as smaller particles are "kicked" further by the solvent molecules and move more rapidly.

[2] = Encapsulation efficiency of doxorubicin hydrochloride in siosomes (absorbance at 480 nm after gel filtration); format: physicochemical
Procedure: A doxorubicin hydrochloride solution at 10 mg/ml was prepared using physiological saline. The predetermined amount of the doxorubicin hydrochloride solution was added to the sugar siosome dispersion using the cationic organosilicon compounds such as 1.2-(Dimethyldecylsilyl)ethyl-beta-D-glucosamin, 2.2-(Dimethyloctylsilylcholin)ethyl-beta-D-glucopyranosid and/or 1.2-(DiN,N,N,trimethylammoniadecylsilyl)ethyl-beta-D-glucopyranosid and the mixture was adjusted to pH 7.4, using 1 N NaOH or saturated sodium hydrogencarbonate and the mixture was stirred at 65°C for 30 minutes the thereby introduce the doxorubicin hydrochloride in the siosomes.
After doxorubicin hydrochloride introduction, the sample was cooled in an ice bath. Gel filtration was conducted using a column (Sepharose 4, fast flow, having a diameter of 2.8 cm and a length of 20 cm, fully substituted with 10% sucrose (pH 6.5)) to remove the doxorubicin hydrochloride that had not been introduced in the siosomes.
The amount of the sugar silanes in the siosomes, the amounts of the doxorubicin hydrochloride encapsulated in the siosomes and the siosomes themselves were measured by the same methods as in the above examples.
Concentration of the doxorubicin hydrochloride encapsulated in the siosomes was determined by measuring absorbance at 480 nm, using a spectrophotometer for the solution prepared by adding 2 ml of methanol to 40 µl of the doxorubicin siosomes. An alternative HPLC-based assay has also been used for the quantification of the doxorubicin in the formulations.
The above procedures described in example 16 were employed to prepare the carrier siosomes systems in this example. According to these methods of preparation, a dispersion of each of the following organo-silicon compounds were prepared, using doxorubicin hydrochloride solutions at […]. • Sil 8.1: Decyldimethylsilyl-α-D-galactopyranosid • Sil 9.1: Dodecyldimethylsilyl-α-D-glucopyranosid • SIL 15: 1-O-Dioctadecylsilyl-di(2,3,4,6-O-tetracetyl-β-D-galactopyranosid) • SIL 14: 1-o-Dioctadecylsilyl-di(2,3,4,6-O-tetracetyl-β-D-glucopyranosid)1-o- • SIL17: Didodecylsilyl-di(2,3,4,6-O-tetracetyl-β-D-glucopyranosid) • SIL18: Tridodecylsilyl-(2,3,4,6-O-tetracetyl-β-D-glucopyranosid) • Sil22.1 Di(octadecanoyloxy)dimethylsilan
The following parameters have been determined: 1 Physico chemical properties 2 Encapsulated efficiency of doxorubicin 3 Stability 4 Particle size distribution prior to lyophilisation and after dehydration using sterile water for injection 5 Release profile

[3] = Intracellular distribution of Cis-Oxoplatin within the rat liver, total platinum in liver homogenate and fractions; format: in vivo; details: rats, 1.5 mg Cis-Oxoplatin encapsulated in Siosomes of the compound, intravenous, 3 hours after administration
From the text: • 1. The objective of the study to assess the intracellular distribution of Cis-Oxoplatin (as model drug molecule) in rat liver using Cis-Oxoplatin encapsulated in Siosomes®, using the following organosilicon compounds: • a. Sugar Organosilicon Compound: Didodecylsilyi-di(2,3,4,6-O-tetraacetyl-β-D-glucopyranosid (SIL 17) • b. Cationic Sugar Organosilicon Compound: 2.2-(Dimethyloctylsilylcholin)ethyl- β-D-glucopyranosid (SIL62) • c. Anionic Sugar Organosilicon Compound: 2-(Dimethyidecylsilyl)ethyl-β-D-glucopyranosidsulfate (SIL56) • d. Zwitterionic Sugar Organosilicon Compound: 2-(N,N,N, trimethylammonianonaylsilyl)ethyl- P-D-glucopyranosidsulfate (SIL66) • e. PEGylated Organosilicon Compound: 2-(Dimethyloctylsilylcholin)ethyl-β-D-PEG-acetylglucosaminether (SIL54) • 2. The different Siosomes® using each of the above mentioned organosilicon compounds have been prepared according to the procedures of this invention. The particle size range of the Siosomes® was 120-300 nm.
The Platinum-Siosomes®-Complex formulations were supplied in vials containing 10 mg each. Before administration, the contents of each vial was dissolved using 2 ml of sterile distilled water.
Each rat was administered with 1.5 mg investigative formulation, therefore each rat was administered 300 µl.
At the start of the study, all animals in all treatment groups received 1.5 mg of investigative drug. All drugs given via intravenous route were treated in an ultrasonic bath for five minutes at room temperature.
Tissue fractionation was performed by differential centrifugation yielding 5 fractions: • a. Mitochondrial fraction • b. Cytosol • c. Lysosomes • d. Microsomal fraction • e. Membrane fraction
Animals have been sacrificed 3 hours after the administration of the Siosomes® formulations. The livers have been removed from all animals. The liver homogenate has been prepared from the liver of each treatment group and used for the fractionation of the liver cells.
Each of the animals in the treatment control group for the determination of total platinum in the liver homogenate have been administered the Drug-Siosomes® formulations in the same way/procedures as the treatment groups.
Total platinum concentrations have been determined in each fraction for the treated and untreated animal groups. • Average animal weight = 211.64 ± 21.23 g • Average liver weight = 10.40 ± 1.27 g • Average concentration of total platinum in the liver homogenate of the treatment groups (control) • Group 1: Sugar Organosilicon Compound = 2.34 ± 0.82 µg/g • Group 2: Cationic Sugar Organosilicon Compound = 4.40 ± 1.30 µg/g • Group 3: Anionic Sugar Organosilicon Compound = 2.20 ± 0.90 µg/g • Group 4: Zwitterionic Sugar Organosilicon Compound = 3.10 ± 0.70 µg/g • Group 5: PEGylated Organosilicon Compound = 2.90 ± 1.20 µg/g

[4] = IPSS E011: pharmacokinetics and bioaccumulation of platinum complexes, total platinum in blood and organs by AAS; format: in vivo; details: rats, 1.0 mg intravenous, repeated dose over 7 consecutive days
From the text: IPSS E011: A Clinical Study in Rats on the Pharmacokinetics and Bioaccumulation of Platinum Complexes following the Repeated Dose over 7 Consecutive Days of Formulations (PT-11, PT-12 and PT-13), with 7 Days Non-Treatment Period
The following tables and figure 12 illustrate a summary of the generated results.

[5] = Example 18: doxorubicin-siosomes prepared from the single organosilicon compound
[6] = Example 19: doxorubicin-siosomes from organosilicon compounds and combinations

Particle size range of the Doxorubicin-siosomes (nm) [1]: 180-250 nm | Encapsulation efficiency (%) [2, 5]: 80-85%
Compound: 2-(Dimethyl nonaoic acid silyl)ethyl-beta-D-PEG-acetylglucosaminether [SIL 53]

Compound: 2-(Dimethylcholesterylhemisuccinatesilyl)ethyl-beta-D-glucopyranosid sulfate [SIL 59]
Particle size range of the Doxorubicin-siosomes (nm) [1]: 180-220 nm | Encapsulation efficiency (%) [2, 5]: 60-70%

Compound: 2-(Dimethyloctadecylsilyl)ethyl-beta-N-acetylmuramic acid [SIL 60]
Particle size range of the Doxorubicin-siosomes (nm) [1]: 200-250 nm | Encapsulation efficiency (%) [2, 5]: 60-70%

Particle size range of the Doxorubicin-siosomes (nm) [1]: 200-250 nm | Encapsulation efficiency (%) [2, 5]: 80-85%
Compound: 2-(Dimethyloctylsilylcholin)ethyl-beta-D-PEG-acetylglucosaminether [SIL 54]

Compound: 2-(N,N,N,trimethylammonia nonanyllsilyl)ethyl-beta-D-glucopyranosid sulfate [SIL 66]
Average concentration of total platinum in the liver homogenate [3]: 3.10 ± 0.70 µg/g | Particle size range of the Doxorubicin-siosomes (nm) [1]: 150-220 nm | Encapsulation efficiency (%) [2, 5]: 55-70%

Compound: 2-(N,N,N,trimethylammonia nonyllsilyl)ethyl-beta-D-glucopyranosid [SIL 67]
Particle size range of the Doxorubicin-siosomes (nm) [1]: 200-280 nm | Encapsulation efficiency (%) [2, 5]: 60-70%

Compound: CCCCCCCCCCCCCCCCCC[Si](CCCCCCCCCCCCCCCCCC)(O[C@@H]1O[C@H](COC(C)=O)[C@@H](OC(C)=O)[C@H](OC(C)=O)[C@H]1OC(C)=O)O[C@@H]1O[C@H](COC(C)=O)[C@@H](OC(C)=O)[C@H](OC(C)=O)[C@H]1OC(C)=O [SIL 14, 1-O-Dioctadecylsilyl-di(2,3,4,6-O-tetraacetyl-β-D-glucopyranosid)]
Particle size range of the Doxorubicin-siosomes (nm) [1]: 210-260 nm | Encapsulation efficiency (%) [2, 5]: 75-80%

Compound: CCCCCCCCCCCCCCCCCC[Si](CCCCCCCCCCCCCCCCCC)(O[C@@H]1O[C@H](COC(C)=O)[C@H](OC(C)=O)[C@H](OC(C)=O)[C@H]1OC(C)=O)O[C@@H]1O[C@H](COC(C)=O)[C@H](OC(C)=O)[C@H](OC(C)=O)[C@H]1OC(C)=O [SIL 15, 1-O-Dioctadecylsilyl-di(2,3,4,6-O-tetraacetyl-β-D-galactopyranosid)]
Particle size range of the Doxorubicin-siosomes (nm) [1]: 180-250 nm | Encapsulation efficiency (%) [2, 5]: 70-78%

Compound: CCCCCCCCCCCC[Si](CCCCCCCCCCCC)(CCCCCCCCCCCC)O[C@@H]1O[C@H](COC(C)=O)[C@@H](OC(C)=O)[C@H](OC(C)=O)[C@H]1OC(C)=O [SIL 18, Tridodecylsilyl-(2,3,4,6-O-tetraacetyl-β-D-glucopyranosid)]
Particle size range of the Doxorubicin-siosomes (nm) [1]: 160-250 nm | Particle size (nm) [1]: 220-350 nm | Encapsulation efficiency (%) [2, 5]: 55-60% | Encapsulation efficiency (%) [2, 6]: 60-80%

Compound: CCCCCCCCCC(=O)O[Si](C)(C)OC(=O)CCCCCCCCC [SIL 21.1, Di(decanoyloxy)dimethylsilan]
Particle size range of the Doxorubicin-siosomes (nm) [1]: 210-240 nm | Encapsulation efficiency (%) [2, 5]: 60-75%

Compound: CCCCCCCC[Si](C)(C)CCO[C@@H]1O[C@H](CO)[C@H](O)[C@H](O)[C@H]1O [SIL 22, 2-(Dimethyloctylsilyl)ethyl-β-D-galactopyranosid]
Particle size (nm) [1]: 250-300 nm | Encapsulation efficiency (%) [2, 6]: 55-70%

Compound: CCCCCCCCCC[Si](C)(C)CCO[C@@H]1O[C@H](COS(=O)(=O)O)[C@@H](O)[C@H](O)[C@H]1O [SIL 56, 2-(Dimethyldecylsilyl)ethyl-beta-D-glucopyranosidsulfate]
Average concentration of total platinum in the liver homogenate [3]: 2.20 ± 0.90 µg/g | Particle size range of the Doxorubicin-siosomes (nm) [1]: 200-220 nm | Encapsulation efficiency (%) [2, 5]: 60-70%

Compound: CCCCCCCCCC[Si](C)(C)CCO[C@@H]1O[C@H](C(=O)O)[C@@H](O)[C@H](O)[C@H]1O [SIL 57, 2-(Dimethyldecylsilyl)ethyl-beta-D-glucopyranosidcarboxylate]
Particle size range of the Doxorubicin-siosomes (nm) [1]: 180-270 nm | Encapsulation efficiency (%) [2, 5]: 75-80%

Compound: C[Si](C)(CCCCCCCCC(=O)O)CCO[C@@H]1O[C@H](CO)[C@@H](O)[C@H](O)[C@H]1O [SIL 58, 2-(Dimethylnonanoic acid silyl)ethyl-beta-D-glucopyranosid]
Particle size range of the Doxorubicin-siosomes (nm) [1]: 150-270 nm | Encapsulation efficiency (%) [2, 5]: 70-80%

Compound: C[Si](C)(CCCCCCCCCC(=O)O)CCOC1O[C@H](CO)[C@H](O)[C@H](O)[C@H]1N (stereo partly drawn) [SIL 68]
Particle size range of the Doxorubicin-siosomes (nm) [1]: 180-220 nm | Encapsulation efficiency (%) [2, 5]: 70-80%

Compound: CCCCCCCCCC[Si](C)(C)O[C@H]1O[C@H](CO)[C@H](O)[C@H](O)[C@H]1O [Sil 8.1, Decyldimethylsilyl-α-D-galactopyranosid]
Particle size range of the Doxorubicin-siosomes (nm) [1]: 100-220 nm | Encapsulation efficiency (%) [2, 5]: 65-70%

Compound: CCCCCCCCCCCC[Si](C)(C)O[C@H]1O[C@H](CO)[C@@H](O)[C@H](O)[C@H]1O [Sil 9.1, Dodecyldimethylsilyl-α-D-glucopyranosid]
Particle size range of the Doxorubicin-siosomes (nm) [1]: 150-200 nm | Encapsulation efficiency (%) [2, 5]: 60-65%

Concentration of Total Platinum in Blood (ng/ml), Average ([4]; 7 days non-treatment period, average of 6 rats): 1521,92 ng/ml | Concentration of Total Platinum in Kidney (µg/g), Average ([4]; average of 6 rats): 14,92 µg/g | Concentration of Total Platinum in Lung (µg/g), Average ([4]; average of 6 rats): 0,77 µg/g | Concentration of Total Platinum in Spleen (µg/g), Average ([4]; average of 6 rats): 2,39 µg/g | Concentration of Total Platinum in Stomach (µg/g), Average ([4]; average of 6 rats): 0,41 µg/g
Compound: N.N.[Cl-].[Cl-].[OH-].[OH-].[Pt+4] [Standard Cis-Oxoplatin, Cis-oxoplatin]
Concentration of Total Platinum in Blood (ng/ml) ([4]; 7 days non-treatment period, individual rats): 1814,30 ng/ml and 1131,40 ng/ml and 1522,90 ng/ml and 1244,30 ng/ml and 1864,30 ng/ml and 1554,30 ng/ml | Concentration of Total Platinum in Kidney (µg/g) ([4]; individual rats): 21,22 µg/g and 13,92 µg/g and 15,88 µg/g and 11,62 µg/g and 11,76 µg/g and 15,12 µg/g | Concentration of Total Platinum in Lung (µg/g) ([4]; individual rats): 0,80 µg/g and 0,62 µg/g and 1,09 µg/g and 0,52 µg/g and 0,71 µg/g and 0,86 µg/g | Concentration of Total Platinum in Stomach (µg/g) ([4]; individual rats): 0,51 µg/g and 0,47 µg/g and 0,38 µg/g and 0,35 µg/g (2×) and 0,37 µg/g | Concentration of Total Platinum in Spleen (µg/g) ([4]; individual rats, listed as Standard Cis-Oxoplatinum): 1,99 µg/g and 2,28 µg/g and 2,35 µg/g and 2,10 µg/g and 3,81 µg/g and 1,80 µg/g
